Measured values taken from patent US20240059671A1, “TYROSINE KINASE 2 (TYK2) DEGRADATION COMPOUNDS AND METHODS OF USE” (CULLGEN (SHANGHAI), INC., priority 2020, published 2024).
Entries after “also recorded” stand apart in the source; their conditions may differ.

How the values were obtained:
Format in all cases: cell-based
TYK2 [1] = target: T1, TYK2 (Homo sapiens, UniProt P29597); assay: TYK2 protein degradation in MOLT-4 cells by immunoblotting; parameters: endogenous in cells; host or cells: MOLT-4; settings: 24 hours; for TYK2 Degradation (0.5 μM) / TYK2 Degradation (5 μM): MOLT-4 cells; for Reduction of TYK2 protein levels over a dose range (FIG. 1): MOLT-4 cells, 0.04, 0.2, 1, and 5 μM
T1 sequence (P29597 whole entry): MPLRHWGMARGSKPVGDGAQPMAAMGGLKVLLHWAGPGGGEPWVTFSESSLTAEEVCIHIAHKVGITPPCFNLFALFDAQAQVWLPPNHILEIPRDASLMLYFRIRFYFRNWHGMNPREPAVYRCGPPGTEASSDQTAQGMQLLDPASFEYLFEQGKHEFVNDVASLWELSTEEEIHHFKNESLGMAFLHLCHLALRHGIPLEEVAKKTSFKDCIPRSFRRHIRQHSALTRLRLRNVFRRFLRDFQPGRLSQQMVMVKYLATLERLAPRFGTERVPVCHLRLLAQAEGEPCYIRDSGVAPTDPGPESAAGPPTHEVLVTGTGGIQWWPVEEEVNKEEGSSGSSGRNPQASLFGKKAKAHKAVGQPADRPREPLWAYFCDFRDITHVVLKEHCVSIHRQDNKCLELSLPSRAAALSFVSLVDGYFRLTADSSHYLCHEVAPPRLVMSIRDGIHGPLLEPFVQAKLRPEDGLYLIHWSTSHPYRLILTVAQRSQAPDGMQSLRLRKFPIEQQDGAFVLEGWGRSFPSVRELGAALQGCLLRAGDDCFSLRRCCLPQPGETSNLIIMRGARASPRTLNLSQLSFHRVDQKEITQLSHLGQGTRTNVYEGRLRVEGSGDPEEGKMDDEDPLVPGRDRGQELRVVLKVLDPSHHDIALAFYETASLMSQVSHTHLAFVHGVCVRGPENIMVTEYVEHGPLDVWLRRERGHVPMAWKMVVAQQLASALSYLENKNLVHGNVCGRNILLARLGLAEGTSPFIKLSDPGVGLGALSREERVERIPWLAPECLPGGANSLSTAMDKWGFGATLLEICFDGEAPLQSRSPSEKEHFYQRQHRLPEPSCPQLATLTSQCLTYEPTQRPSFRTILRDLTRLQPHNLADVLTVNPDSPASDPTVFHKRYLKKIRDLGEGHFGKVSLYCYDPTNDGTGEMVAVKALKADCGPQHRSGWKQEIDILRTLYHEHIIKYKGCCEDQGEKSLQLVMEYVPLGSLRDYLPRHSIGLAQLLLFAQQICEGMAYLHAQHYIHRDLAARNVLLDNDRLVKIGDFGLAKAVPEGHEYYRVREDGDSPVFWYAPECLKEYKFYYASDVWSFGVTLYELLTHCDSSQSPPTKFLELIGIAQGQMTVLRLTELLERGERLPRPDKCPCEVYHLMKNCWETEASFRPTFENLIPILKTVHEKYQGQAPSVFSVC
In short: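 MOLT-4 cells were exposed to compounds at 0.5 and 5 μM for 24 h, then lysed in RIPA buffer with protease and phosphatase inhibitors. TYK2 was detected by SDS-PAGE immunoblot with chemiluminescence, and band densitometry gave percent degradation.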

JAK1, JAK2, and JAK3 = assay: Immunoblot of JAK1/2/3 protein levels in MOLT-4 cells (selectivity of TYK2 reduction); settings: MOLT-4 cells, 0.04, 0.2, 1, and 5 μM, 24 hours
Procedure: MOLT-4 cells were treated with CPD-038, CPD-039, and CPD-040 at 0.04, 0.2, 1, and 5 μM concentrations for 24 hours.
(§1) Rabbit anti-JAK1antibody (3344S), anti-JAK2 antibody (3230S), anti-JAK3 antibody (8827S), anti-TYK2 antibody (14193S), anti-STAT1 antibody (9167S), anti-STAT3 antibody (9139S), anti-phospho-STAT1 (Tyr701) antibody ([…]), anti-phospho-STAT3 (Tyr705) antibody (9145S), were purchased from Cell Signaling Technology; anti-β-actin antibody (ab8226) was from Abeam; HRP-conjugated anti-α-Tubulin (GNI4310-AT) antibody was purchased from GNI. Media and other cell culture reagents were purchased from Thermo Fisher.
(§2) Cultured cells were washed with cold PBS once and lysed in cold RIPA buffer supplemented with protease inhibitors and phosphatase inhibitors (Beyotime Biotechnology). The solutions were then incubated at 4° C. for 30 minutes with gentle agitation to fully lyse cells. Cell lysates were centrifuged at 13,000 rpm for 10 minutes at 4° C. and pellets were discarded. Total protein concentrations in the lysates were determined by BCA assays (Beyotime Biotechnology). Cell lysates were mixed with Laemmli loading buffer to 1× and heated at 99° C. for 5 min. Proteins were resolved on SDS-PAGE and visualized by chemiluminescence. Images were taken by a ChemiDoc MP Imaging system (Bio-Rad). Protein bands were quantitated using the accompanied software provided by Bio-Rad.

[2] = system: phosphorylation of STAT1 (Tyr701) and STAT3 (Tyr705); assay: IFNα-induced STAT1/3 phosphorylation in Jurkat cells by immunoblotting; settings: 3 or 30 nM, 16 hours, then IFNα (2000 IU) for 15 min
Procedure: (§3) Jurkat cells were treated with DMSO or a dose range of heterobifunctional compounds CPD-155, CPD-158, and CPD-164 at 3 or 30 nM concentrations for 16 hours. Cells were subsequently treated with IFNα (2000 IU) for 15 min as indicated.
as §1, §2

TYK2 [3] = target: T1, TYK2; assay: TYK2 protein levels in Jurkat cells by immunoblotting; parameters: endogenous in cells; settings: 3 or 30 nM, 16 hours
Procedure: as §3, §2

TYK2 [4] = target: T1, TYK2; assay: TYK2 protein degradation in NOMO-1 cells by immunoblotting; parameters: endogenous in cells; settings: for TYK2 Degradation (NOMO-1, 10 nM) / TYK2 Degradation (NOMO-1, 100 nM): NOMO-1 cells
In short: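 NOMO-1 cells in RPMI 1640 with 10% FBS were exposed to compound at 0.1–1000 nM for 16 hours. TYK2 levels in RIPA lysates were measured by SDS-PAGE immunoblot with chemiluminescent detection and band densitometry.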

SMILES | TYK2 Degradation (0.5 μM) (TYK2 [1]) | TYK2 Degradation (5 μM) (TYK2 [1]) | TYK2 protein levels in Jurkat cells (FIG. 3) (TYK2 [3]) | TYK2 Degradation (NOMO-1, 10 nM) (TYK2 [4]) | TYK2 Degradation (NOMO-1, 100 nM) (TYK2 [4]) | Reduction of TYK2 protein levels over a dose range (FIG. 1) (TYK2 [1]) | Selectivity of TYK2 protein reduction over JAK1, JAK2, and JAK3 (FIG. 1) (JAK1, JAK2, and JAK3) | Phosphorylation of STAT1 (Tyr701) and STAT3 (Tyr705) induced by IFNα (FIG. 3) [2] | Reduction of TYK2 protein levels over a dose range (FIG. 2) (TYK2 [4]; NOMO-1 cells, 0.1, 1, 10, 100 and 1000 nM, 16 hours)
CNC(=O)c1nnc(NC(=O)CNC(=O)CCCCCCC(=O)N[C@H](C(=O)N2C[C@H](O)C[C@H]2C(=O)NCc2ccc(-c3scnc3C)cc2)C(C)(C)C)cc1Nc1cccc(-c2ncn(C)n2)c1OC [CPD-038, N1-((S)-1-((2S,4R)-4-hydroxy-2-((4-(4-methylthiazol-5-yl)benzyl)carbamoyl)pyrrolidin-1-yl)-3,3-dimethyl-1-oxobutan-2-yl)-N8-(2-((5-((2-methoxy-3-(1-methyl-1H-1,2,4-triazol-3-yl)phenyl)amino)-6-(methylcarbamoyl)pyridazin-3-yl)amino)-2-oxoethyl)octanediamide] | 50% | 90% | – | – | – | concentration-dependently reduced the TYK2 proteins levels; also recorded: reduce TYK2 protein levels in a concentration-dependent manner | very selective at the reduction protein levels of TYK2 over JAK1, JAK2, and JAK3; also recorded: highly selective at the degradation of TYK2 over JAKT/2/3 proteins | – | –
CNC(=O)c1nnc(NC(=O)CNC(=O)CCCCCCCC(=O)N[C@H](C(=O)N2C[C@H](O)C[C@H]2C(=O)NCc2ccc(-c3scnc3C)cc2)C(C)(C)C)cc1Nc1cccc(-c2ncn(C)n2)c1OC [CPD-039, N1-((S)-1-((2S,4R)-4-hydroxy-2-((4-(4-methylthiazol-5-yl)benzyl)carbamoyl)pyrrolidin-1-yl)-3,3-dimethyl-1-oxobutan-2-yl)-N9-(2-((5-((2-methoxy-3-(1-methyl-1H-1,2,4-triazol-3-yl)phenyl)amino)-6-(methylcarbamoyl)pyridazin-3-yl)amino)-2-oxoethyl)nonanediamide] | 60% | 90% | – | – | – | concentration-dependently reduced the TYK2 proteins levels; also recorded: reduce TYK2 protein levels in a concentration-dependent manner | very selective at the reduction protein levels of TYK2 over JAK1, JAK2, and JAK3; also recorded: highly selective at the degradation of TYK2 over JAKT/2/3 proteins | – | –
CNC(=O)c1nnc(Nc2ccc(C(=O)NCCCCCCCCNc3cccc4c3C(=O)N(C3CCC(=O)NC3=O)C4=O)cn2)cc1Nc1cccc(-c2ncn(C)n2)c1OC (stereo not drawn) [CPD-158, 6-((5-((8-((2-(2,6-dioxopiperidin-3-yl)-1,3-dioxoisoindolin-4-yl)amino)octyl)carbamoyl)pyridin-2-yl)amino)-4-((2-methoxy-3-(1-methyl-1H-1,2,4-triazol-3-yl)phenyl)amino)-N-methylpyridazine-3-carboxamide] | – | – | reduced levels of TYK2 proteins | A (A: ≥60% TYK2 degradation) | B (B: <60% TYK2 degradation, and >20% TYK2 degradation) | – | – | concentration-dependently reduced phosphorylation of STAT1 (Tyr701) and STAT3 (Tyr705) induced by IFNα treatment; also recorded: significantly decreased STAT1/3 phosphorylation downstream of IFNα stimulation | concentration-dependently reduced the TYK2 proteins levels; also recorded: highly potent in reducing TYK2 protein levels
CNC(=O)c1nnc(Nc2ccc(N3CCN(C4CCN(C(=O)CCCCC(=O)N[C@H](C(=O)N5C[C@H](O)C[C@H]5C(=O)N[C@@H](C)c5ccc(-c6scnc6C)cc5)C(C)(C)C)CC4)CC3)cn2)cc1Nc1cccc(-c2ncn(C)n2)c1OC [CPD-147, 6-((5-(4-(1-(6-(((S)-1-((2S,4R)-4-Hydroxy-2-(((S)-1-(4-(4-methylthiazol-5-yl)phenyl)ethyl)carbamoyl)pyrrolidin-1-yl)-3,3-dimethyl-1-oxobutan-2-yl)amino)-6-oxohexanoyl)piperidin-4-yl)piperazin-1-yl)pyridin-2-yl)amino)-4-((2-methoxy-3-(1-methyl-1H-1,2,4-triazol-3-yl)phenyl)amino)-N-methylpyridazine-3-carboxamide] | – | – | – | B (B: <60% TYK2 degradation, and >20% TYK2 degradation) | A (A: ≥60% TYK2 degradation) | – | – | – | –
CNC(=O)c1nnc(NC(=O)CNC(=O)CCCCCCCCC(=O)N[C@H](C(=O)N2C[C@H](O)C[C@H]2C(=O)NCc2ccc(-c3scnc3C)cc2)C(C)(C)C)cc1Nc1cccc(-c2ncn(C)n2)c1OC [CPD-040, N1-((S)-1-((2S,4R)-4-hydroxy-2-((4-(4-methylthiazol-5-yl)benzyl)carbamoyl)pyrrolidin-1-yl)-3,3-dimethyl-1-oxobutan-2-yl)-N10-(2-((5-((2-methoxy-3-(1-methyl-1H-1,2,4-triazol-3-yl)phenyl)amino)-6-(methylcarbamoyl)pyridazin-3-yl)amino)-2-oxoethyl)decanediamide] | 60% | 60% | – | – | – | concentration-dependently reduced the TYK2 proteins levels; also recorded: reduce TYK2 protein levels in a concentration-dependent manner | very selective at the reduction protein levels of TYK2 over JAK1, JAK2, and JAK3; also recorded: highly selective at the degradation of TYK2 over JAKT/2/3 proteins | – | –
CNC(=O)c1nnc(Nc2ccc(C(=O)NCCCCCNc3ccc4c(c3)C(=O)N(C3CCC(=O)NC3=O)C4=O)cn2)cc1Nc1cccc(-c2ncn(C)n2)c1OC (stereo not drawn) [CPD-164, 6-((5-((5-((2-(2,6-dioxopiperidin-3-yl)-1,3-dioxoisoindolin-5-yl)amino)pentyl)carbamoyl)pyridin-2-yl)amino)-4-((2-methoxy-3-(1-methyl-1H-1,2,4-triazol-3-yl)phenyl)amino)-N-methylpyridazine-3-carboxamide] | – | – | reduced levels of TYK2 proteins | A (A: ≥60% TYK2 degradation) | B (B: <60% TYK2 degradation, and >20% TYK2 degradation) | – | – | concentration-dependently reduced phosphorylation of STAT1 (Tyr701) and STAT3 (Tyr705) induced by IFNα treatment; also recorded: significantly decreased STAT1/3 phosphorylation downstream of IFNα stimulation | –

Further lines, with some results ahead:

TYK2 Degradation (0.5 μM) (TYK2 [1]) | TYK2 Degradation (5 μM) (TYK2 [1]) | TYK2 protein levels in Jurkat cells (FIG. 3) (TYK2 [3]) | TYK2 Degradation (NOMO-1, 10 nM) (TYK2 [4]) | TYK2 Degradation (NOMO-1, 100 nM) (TYK2 [4]) | SMILES | Reduction of TYK2 protein levels over a dose range (FIG. 1) (TYK2 [1]) | Selectivity of TYK2 protein reduction over JAK1, JAK2, and JAK3 (FIG. 1) (JAK1, JAK2, and JAK3) | Phosphorylation of STAT1 (Tyr701) and STAT3 (Tyr705) induced by IFNα (FIG. 3) [2] | Reduction of TYK2 protein levels over a dose range (FIG. 2) (TYK2 [4]; NOMO-1 cells, 0.1, 1, 10, 100 and 1000 nM, 16 hours)
– | – | – | C (C: ≤20% TYK2 degradation) | A (A: ≥60% TYK2 degradation) | CNC(=O)c1nnc(Nc2ccc(C(=O)NCCCC(=O)N[C@H](C(=O)N3C[C@H](O)C[C@H]3C(=O)N[C@@H](C)c3ccc(-c4scnc4C)cc3)C(C)(C)C)cn2)cc1Nc1cccc(-c2ncn(C)n2)c1OC [CPD-139, 6-((5-((4-(((S)-1-((2S,4R)-4-Hydroxy-2-(((S)-1-(4-(4-methylthiazol-5-yl)phenyl)ethyl)carbamoyl)pyrrolidin-1-yl)-3,3-dimethyl-1-oxobutan-2-yl)amino)-4-oxobutyl)carbamoyl)pyridin-2-yl)amino)-4-((2-methoxy-3-(1-methyl-1H-1,2,4-triazol-3-yl)phenyl)amino)-N-methylpyridazine-3-carboxamide] | – | – | – | –
– | – | – | A (A: ≥60% TYK2 degradation) | C (C: ≤20% TYK2 degradation) | CNC(=O)c1nnc(Nc2ccc(C(=O)NCCCCCCCCNc3ccc4c(c3)C(=O)N(C3CCC(=O)NC3=O)C4=O)cn2)cc1Nc1cccc(-c2ncn(C)n2)c1OC (stereo not drawn) [CPD-167, 6-((5-((8-((2-(2,6-dioxopiperidin-3-yl)-1,3-dioxoisoindolin-5-yl)amino)octyl)carbamoyl)pyridin-2-yl)amino)-4-((2-methoxy-3-(1-methyl-1H-1,2,4-triazol-3-yl)phenyl)amino)-N-methylpyridazine-3-carboxamide] | – | – | – | –
